Source: ChEMBL document CHEMBL2331167, “Inhibitory effect of novel somatostatin peptide analogues on human cancer cell growth based on the selective inhibition of DNA polymerase β” (Bioorg Med Chem, 2013)
Active and inactive are the calls of the source. The rule behind the calls is not given here.

Columns and labels:
[1] = target: DNA nucleotidylexotransferase (Bos taurus, UniProt P06526); assay: Inhibition of calf TdT polymerase measured at 37 degC for 60 mins
[2] = Inhibition of human DNA polymerase epsilon using poly(dA)/oligo(dT)18 (A/T, 2/1)/dTTP DNA template-primer substrate measured at 37 degC for 60 mins
[3] = target: T1, DNA polymerase eta (Homo sapiens, UniProt Q9Y253); assay: Inhibition of human DNA polymerase eta using poly(dA)/oligo(dT)18 (A/T, 2/1)/dTTP DNA template-primer substrate measured at 37 degC for 60 mins
T1 sequence (Q9Y253 whole entry): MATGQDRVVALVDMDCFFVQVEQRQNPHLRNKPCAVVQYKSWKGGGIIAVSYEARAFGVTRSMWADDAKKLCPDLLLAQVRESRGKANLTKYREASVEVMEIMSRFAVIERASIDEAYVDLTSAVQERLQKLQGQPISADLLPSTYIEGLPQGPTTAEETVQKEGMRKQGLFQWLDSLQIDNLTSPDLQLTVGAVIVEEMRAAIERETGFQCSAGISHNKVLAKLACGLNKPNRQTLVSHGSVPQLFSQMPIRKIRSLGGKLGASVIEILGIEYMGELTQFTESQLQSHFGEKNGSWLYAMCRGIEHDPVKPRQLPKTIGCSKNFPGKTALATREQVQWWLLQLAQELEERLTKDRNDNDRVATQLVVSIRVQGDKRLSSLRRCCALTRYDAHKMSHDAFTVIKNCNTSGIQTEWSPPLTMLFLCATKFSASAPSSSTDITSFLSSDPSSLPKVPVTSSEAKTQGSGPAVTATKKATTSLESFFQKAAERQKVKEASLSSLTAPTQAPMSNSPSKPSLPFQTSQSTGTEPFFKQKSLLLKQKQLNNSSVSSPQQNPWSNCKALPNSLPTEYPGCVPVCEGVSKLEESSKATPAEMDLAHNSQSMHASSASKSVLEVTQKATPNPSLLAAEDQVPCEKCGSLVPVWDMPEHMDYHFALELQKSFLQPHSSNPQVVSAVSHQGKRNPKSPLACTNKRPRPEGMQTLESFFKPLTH

[4] = test system: HCT-116; assay: Cytotoxicity against p53 +/+ human HCT116 cells assessed as growth inhibition incubated for 24 hrs by WST-1 assay; format: functional; settings: HCT-116, 24 h, read-out: LD50 (the source's name)
[5] = test system: HCT-116; assay: Induction of apoptosis in p53 -/- human HCT116 cells assessed as DNA fragmentation at 13.7 uM incubated for 24 hrs by agarose gel electrophoresis; format: functional, cell-based
[6] = test system: HCT-116; assay: Induction of apoptosis in p53 +/+ human HCT116 cells assessed as apoptotic cells at 13.2 uM incubated for 24 hrs by TUNEL analysis relative to p53 -/- human HCT116 cells; format: functional
[7] = target: T2, DNA polymerase subunit gamma-1 (Homo sapiens, UniProt P54098); assay: Inhibition of human DNA polymerase gamma using poly(dA)/oligo(dT)18 (A/T, 2/1)/dTTP DNA template-primer substrate measured at 37 degC for 60 mins
T2 sequence (P54098 whole entry): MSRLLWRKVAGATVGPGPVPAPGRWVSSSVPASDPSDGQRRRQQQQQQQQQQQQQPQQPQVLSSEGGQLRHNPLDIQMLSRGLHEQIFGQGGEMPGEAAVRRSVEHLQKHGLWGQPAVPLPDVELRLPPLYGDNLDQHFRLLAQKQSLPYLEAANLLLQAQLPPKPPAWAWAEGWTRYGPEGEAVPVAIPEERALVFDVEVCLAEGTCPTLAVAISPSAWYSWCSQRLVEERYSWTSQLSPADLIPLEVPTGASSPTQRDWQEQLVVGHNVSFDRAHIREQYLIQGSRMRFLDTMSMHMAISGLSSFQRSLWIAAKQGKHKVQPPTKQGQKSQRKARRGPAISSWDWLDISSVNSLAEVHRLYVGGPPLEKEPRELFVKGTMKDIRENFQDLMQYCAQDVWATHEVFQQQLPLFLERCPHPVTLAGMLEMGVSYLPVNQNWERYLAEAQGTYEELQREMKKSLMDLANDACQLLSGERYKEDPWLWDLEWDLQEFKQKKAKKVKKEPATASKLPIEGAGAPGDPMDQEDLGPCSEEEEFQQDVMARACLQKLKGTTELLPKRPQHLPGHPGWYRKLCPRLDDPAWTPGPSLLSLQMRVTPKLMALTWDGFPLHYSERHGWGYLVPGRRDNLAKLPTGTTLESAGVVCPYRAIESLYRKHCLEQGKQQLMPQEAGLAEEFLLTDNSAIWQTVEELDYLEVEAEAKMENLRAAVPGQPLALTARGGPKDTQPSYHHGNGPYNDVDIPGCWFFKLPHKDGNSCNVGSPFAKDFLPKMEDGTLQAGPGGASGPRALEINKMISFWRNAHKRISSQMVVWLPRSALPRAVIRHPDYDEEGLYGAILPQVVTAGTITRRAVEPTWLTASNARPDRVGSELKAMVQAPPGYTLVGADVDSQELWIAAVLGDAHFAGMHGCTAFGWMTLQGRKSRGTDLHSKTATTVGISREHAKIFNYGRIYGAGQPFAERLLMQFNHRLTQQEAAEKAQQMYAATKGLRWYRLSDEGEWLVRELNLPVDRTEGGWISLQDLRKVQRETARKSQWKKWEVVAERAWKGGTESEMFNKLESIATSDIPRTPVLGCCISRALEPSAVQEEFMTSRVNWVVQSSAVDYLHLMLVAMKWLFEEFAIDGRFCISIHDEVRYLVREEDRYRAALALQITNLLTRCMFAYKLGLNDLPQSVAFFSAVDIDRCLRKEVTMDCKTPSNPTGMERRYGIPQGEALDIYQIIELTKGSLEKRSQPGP

[8] = test system: HCT-116; assay: Cytotoxicity against p53 +/+ human HCT116 cells assessed as growth inhibition at 200 uM incubated for 24 hrs by WST-1 assay; format: functional, cell-based

DNA nucleotidylexotransferase, sequence (P06526 whole entry): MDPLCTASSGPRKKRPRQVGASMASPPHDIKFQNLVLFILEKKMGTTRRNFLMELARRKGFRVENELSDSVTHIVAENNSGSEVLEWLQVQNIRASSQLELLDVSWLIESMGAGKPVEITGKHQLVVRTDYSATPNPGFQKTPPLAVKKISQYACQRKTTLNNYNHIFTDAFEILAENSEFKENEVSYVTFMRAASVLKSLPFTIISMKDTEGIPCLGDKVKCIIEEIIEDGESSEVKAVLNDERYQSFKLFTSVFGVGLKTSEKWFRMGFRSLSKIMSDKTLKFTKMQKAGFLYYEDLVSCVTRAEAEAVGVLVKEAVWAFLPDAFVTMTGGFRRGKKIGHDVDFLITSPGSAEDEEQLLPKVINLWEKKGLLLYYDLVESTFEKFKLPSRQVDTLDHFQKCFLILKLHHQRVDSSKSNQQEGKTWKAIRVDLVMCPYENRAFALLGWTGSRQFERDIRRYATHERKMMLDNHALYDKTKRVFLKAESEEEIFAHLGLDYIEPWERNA

Structure (SMILES): CC[C@H](C)[C@H](NC(=O)[C@H](Cc1ccc(O)cc1)NC(=O)OC(C)(C)C)C(=O)Nc1cccc2ccccc12
- IC50 [1]: > 200 µM
- IC50 [2]: > 200 µM
- IC50 [3]: > 200 µM
- CC50 [4]: 13.2 µM
- Activity [5]: Active
- fold change (FC) [6]: 3
- IC50 [7]: > 200 µM
- growth inhibition (GI) [8]: Active
